Test results as given in ChEMBL document CHEMBL1201862, “PubChem BioAssay data set” (2004).
Active and inactive are the calls of the source.

How the values were obtained:
[1] = target: T1, Tyrosine-protein phosphatase non-receptor type 7 (Homo sapiens, UniProt P35236); experiment: redox-dependent HePTP inhibition, mechanism study, biochemical, fluorescence (AID 2068); type: functional
T1 sequence (P35236 whole entry): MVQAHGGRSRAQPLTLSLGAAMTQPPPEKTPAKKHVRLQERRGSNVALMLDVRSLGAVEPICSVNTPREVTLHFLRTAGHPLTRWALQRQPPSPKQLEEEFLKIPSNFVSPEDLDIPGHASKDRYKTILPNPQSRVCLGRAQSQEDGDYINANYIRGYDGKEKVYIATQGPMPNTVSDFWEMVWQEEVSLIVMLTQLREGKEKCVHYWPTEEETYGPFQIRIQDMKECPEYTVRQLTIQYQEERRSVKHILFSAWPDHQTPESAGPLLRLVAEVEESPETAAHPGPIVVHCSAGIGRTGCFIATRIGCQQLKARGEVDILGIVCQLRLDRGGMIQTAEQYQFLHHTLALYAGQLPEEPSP

Beta-galactosidase = Beta-galactosidase (Escherichia coli, UniProt Q8VNN2); experiment: PubChem AID 485352; type: functional
[2] = Luminescence Cell-Based Dose Response HTS to Identify Inhibitors of 5'UTR Stem-Loop Driven Prion Protein mRNA Translation in H4 Neuroglioblastoma Cells. [Related pubchem assays: 1827 (Project Summary), 1813 (Primary HTS)]; type: functional
[3] = target: T2, Type-1 angiotensin II receptor (Homo sapiens, UniProt P30556); experiment: AT1 receptor antagonists, dose response, selectivity assay for APJ receptor antagonist project, cell-based, uHTS hits (AID 463214); type: functional;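 further: antagonist potency against angiotensin II stimulated AT1 response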
T2 sequence (P30556 whole entry): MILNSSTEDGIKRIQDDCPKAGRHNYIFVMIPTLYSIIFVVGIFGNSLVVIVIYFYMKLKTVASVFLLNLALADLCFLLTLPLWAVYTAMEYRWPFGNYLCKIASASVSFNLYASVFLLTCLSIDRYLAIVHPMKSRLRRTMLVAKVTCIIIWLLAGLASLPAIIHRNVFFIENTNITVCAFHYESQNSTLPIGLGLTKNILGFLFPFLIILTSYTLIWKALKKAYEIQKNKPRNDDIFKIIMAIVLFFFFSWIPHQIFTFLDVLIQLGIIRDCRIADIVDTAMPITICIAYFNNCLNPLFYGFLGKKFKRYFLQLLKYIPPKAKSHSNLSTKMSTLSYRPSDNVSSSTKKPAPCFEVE

Streptococcus = experiment: Group A Streptococcus viability loss, dose response, counter-screen for streptokinase expression inhibitor project, luminescence, BacTiterGlo (AID 1915); type: functional, organism-based;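 further: potency for reduction of bacterial viability or growth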
[4] = A Cell Based Secondary Assay To Explore Cytotoxicity of Compounds that Sensitize Mycobacterium Tuberculosis to Beta-Lactam Antibiotics.; type: functional
[5] = inhibitors of firefly luciferase expression or activity, dose response, H4 neuroglioma cells, luminescence (AID 1990); type: functional, cell-based
[6] = system: Streptococcus sp. 'group A'; experiment: growth inhibition of control SK(-) GAS strain, dose response, counter-screen for streptokinase expression inhibitor project, luminescence, kanamycin, BacTiterGlo, confirmation (AID 1900); type: functional, organism-based
Hexokinase-1 = target: T3, Hexokinase-1 (Homo sapiens, UniProt P19367); experiment: hexokinase 1 activators, dose response, selectivity assay for HKDC1 activator project, biochemical (AID 504762); type: functional
T3 sequence (P19367 whole entry): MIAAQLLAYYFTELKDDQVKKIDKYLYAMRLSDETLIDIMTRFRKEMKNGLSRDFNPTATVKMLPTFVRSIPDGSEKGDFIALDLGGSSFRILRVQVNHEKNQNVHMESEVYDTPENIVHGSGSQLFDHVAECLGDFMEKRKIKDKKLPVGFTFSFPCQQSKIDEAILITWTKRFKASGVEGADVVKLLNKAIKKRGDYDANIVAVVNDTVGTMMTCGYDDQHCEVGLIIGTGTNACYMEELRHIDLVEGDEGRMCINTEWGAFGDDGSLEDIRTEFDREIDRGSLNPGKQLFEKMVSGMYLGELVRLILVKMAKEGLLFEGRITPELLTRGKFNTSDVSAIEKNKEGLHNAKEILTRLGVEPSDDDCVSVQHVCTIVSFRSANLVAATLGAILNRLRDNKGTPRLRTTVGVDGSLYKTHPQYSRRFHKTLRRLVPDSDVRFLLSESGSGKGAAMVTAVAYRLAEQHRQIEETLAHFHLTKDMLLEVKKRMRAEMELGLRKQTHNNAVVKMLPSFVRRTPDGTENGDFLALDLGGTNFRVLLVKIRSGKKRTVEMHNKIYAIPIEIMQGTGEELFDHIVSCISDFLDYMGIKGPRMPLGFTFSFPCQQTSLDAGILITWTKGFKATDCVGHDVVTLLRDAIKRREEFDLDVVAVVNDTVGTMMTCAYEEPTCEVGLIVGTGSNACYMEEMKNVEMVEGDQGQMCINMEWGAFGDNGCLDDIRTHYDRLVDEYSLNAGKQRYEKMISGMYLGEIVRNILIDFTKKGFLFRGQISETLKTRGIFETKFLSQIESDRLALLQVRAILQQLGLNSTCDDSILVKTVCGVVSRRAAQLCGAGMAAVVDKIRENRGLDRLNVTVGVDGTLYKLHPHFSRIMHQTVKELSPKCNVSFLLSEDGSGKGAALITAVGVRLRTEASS

[7] = inhibitors of SNCA 5'UTR-driven reporter translation, confirmation, H4 neuroglioma cells, luminescence (AID 1988); type: functional, cell-based
Hexokinase HKDC1 = target: T4, Hexokinase HKDC1 (Homo sapiens, UniProt Q2TB90); experiment: HKDC1 hexokinase activators, dose response, biochemical, W721R variant (AID 504730); type: functional
T4 sequence (Q2TB90 whole entry): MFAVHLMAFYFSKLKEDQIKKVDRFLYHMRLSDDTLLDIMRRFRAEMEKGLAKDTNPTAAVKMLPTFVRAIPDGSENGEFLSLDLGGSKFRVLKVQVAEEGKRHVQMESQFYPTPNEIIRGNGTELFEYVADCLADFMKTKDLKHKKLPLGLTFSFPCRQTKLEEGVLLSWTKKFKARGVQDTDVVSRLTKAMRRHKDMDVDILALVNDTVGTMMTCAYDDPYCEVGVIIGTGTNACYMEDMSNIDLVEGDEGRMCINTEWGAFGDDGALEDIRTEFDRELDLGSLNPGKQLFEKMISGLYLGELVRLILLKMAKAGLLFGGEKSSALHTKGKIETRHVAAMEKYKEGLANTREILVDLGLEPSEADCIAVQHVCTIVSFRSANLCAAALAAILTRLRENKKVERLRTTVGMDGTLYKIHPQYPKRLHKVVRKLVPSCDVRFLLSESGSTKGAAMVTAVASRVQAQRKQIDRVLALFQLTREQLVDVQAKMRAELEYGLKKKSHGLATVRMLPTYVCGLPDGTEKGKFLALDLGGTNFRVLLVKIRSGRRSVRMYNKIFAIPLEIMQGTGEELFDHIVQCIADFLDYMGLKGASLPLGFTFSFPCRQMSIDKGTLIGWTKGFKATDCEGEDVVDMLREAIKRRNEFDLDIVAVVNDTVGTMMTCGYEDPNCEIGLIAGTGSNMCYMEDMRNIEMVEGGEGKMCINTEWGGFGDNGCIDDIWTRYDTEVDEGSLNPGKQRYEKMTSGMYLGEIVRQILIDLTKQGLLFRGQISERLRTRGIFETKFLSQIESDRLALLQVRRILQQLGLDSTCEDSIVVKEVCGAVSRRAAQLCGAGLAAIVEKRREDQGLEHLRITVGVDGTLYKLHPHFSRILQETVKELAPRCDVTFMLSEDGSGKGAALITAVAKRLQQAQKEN

[8] = target: T1, Tyrosine-protein phosphatase non-receptor type 7; type: functional
[9] = target: T5, Tyrosine-protein phosphatase non-receptor type 22 (Homo sapiens, UniProt Q9Y2R2); type: functional
T5 sequence (Q9Y2R2 whole entry): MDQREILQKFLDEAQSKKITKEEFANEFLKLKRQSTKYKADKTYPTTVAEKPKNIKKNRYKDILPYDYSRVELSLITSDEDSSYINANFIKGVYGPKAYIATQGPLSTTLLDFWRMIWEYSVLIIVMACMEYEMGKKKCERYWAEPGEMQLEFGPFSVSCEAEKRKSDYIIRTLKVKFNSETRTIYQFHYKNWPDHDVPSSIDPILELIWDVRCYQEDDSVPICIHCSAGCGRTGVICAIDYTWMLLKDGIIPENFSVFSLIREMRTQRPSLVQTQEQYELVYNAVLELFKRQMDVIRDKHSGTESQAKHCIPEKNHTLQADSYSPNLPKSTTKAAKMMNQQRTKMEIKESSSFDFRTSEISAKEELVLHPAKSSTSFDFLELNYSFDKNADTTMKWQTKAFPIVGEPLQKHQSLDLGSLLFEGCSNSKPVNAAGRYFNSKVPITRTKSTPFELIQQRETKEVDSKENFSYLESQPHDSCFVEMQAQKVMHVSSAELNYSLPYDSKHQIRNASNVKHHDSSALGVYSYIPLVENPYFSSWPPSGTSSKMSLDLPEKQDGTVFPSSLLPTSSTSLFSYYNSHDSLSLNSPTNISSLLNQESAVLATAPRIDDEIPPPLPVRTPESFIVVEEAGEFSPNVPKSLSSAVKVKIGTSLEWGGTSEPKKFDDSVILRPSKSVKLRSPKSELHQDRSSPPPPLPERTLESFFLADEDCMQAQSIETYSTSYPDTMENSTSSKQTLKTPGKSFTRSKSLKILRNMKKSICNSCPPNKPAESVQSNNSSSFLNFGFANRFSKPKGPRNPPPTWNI

[10] = target: T5, Tyrosine-protein phosphatase non-receptor type 22; type: functional; remark: listed apart in the source
[11] = target: DNA dC->dU-editing enzyme APOBEC-3A (Homo sapiens, UniProt P31941); experiment: Dose Response confirmation of small molecule APOBEC3A DNA Deaminase Inhibitors via a fluorescence-based single-stranded DNA deaminase assay. [Related pubchem assays (depositor defined):AID493011, AID493024]; type: functional
[12] = target: DNA dC->dU-editing enzyme APOBEC-3G (Homo sapiens, UniProt Q9HC16); type: functional;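 further: Dose-response counterscreen measuring inhibition of APOBEC3G DNA deaminase activity, run while confirming APOBEC3A inhibitors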
[13] = target: T6, Heat shock factor protein 1 (Mus musculus, UniProt P38532); experiment: inhibition of MG132-induced HSE-luciferase signal, confirmation, cell-based, NIH3T3, luminescence, dose retest (AID 2382); type: functional;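 further: NIH3T3 fibroblasts with HSF1-driven luciferase reporter stressed by proteasome inhibitor MG132; luminescence from HSF1-driven luciferase expression after 8 hours of MG132 stress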
T6 sequence (P38532 whole entry): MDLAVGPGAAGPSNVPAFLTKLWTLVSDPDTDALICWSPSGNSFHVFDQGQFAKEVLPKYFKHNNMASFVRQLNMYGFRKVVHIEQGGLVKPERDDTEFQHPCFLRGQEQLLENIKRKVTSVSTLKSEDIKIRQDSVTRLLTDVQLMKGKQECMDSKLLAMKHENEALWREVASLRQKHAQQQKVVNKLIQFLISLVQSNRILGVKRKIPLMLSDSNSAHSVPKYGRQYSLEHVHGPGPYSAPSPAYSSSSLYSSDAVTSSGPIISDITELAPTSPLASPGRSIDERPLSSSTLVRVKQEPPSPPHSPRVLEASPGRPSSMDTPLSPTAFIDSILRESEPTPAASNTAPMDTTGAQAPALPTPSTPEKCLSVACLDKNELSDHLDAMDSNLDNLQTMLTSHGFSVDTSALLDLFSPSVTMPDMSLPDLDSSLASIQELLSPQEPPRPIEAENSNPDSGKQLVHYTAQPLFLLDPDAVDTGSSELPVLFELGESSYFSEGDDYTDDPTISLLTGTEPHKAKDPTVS

INS1 = experiment: beta cell apoptosis inhibitors, cytokine rescue, dose response, luminescence, retest (AID 449756); type: functional, cell-based; conditions: Rattus norvegicus;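 further: cell death triggered by IL-1 beta plus TNF-alpha plus IFN-gamma mixture; protective hits raise ATP signal compared with cytokine alone wells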

Chain of DNA dC->dU-editing enzyme APOBEC-3G (Q9HC16 whole entry): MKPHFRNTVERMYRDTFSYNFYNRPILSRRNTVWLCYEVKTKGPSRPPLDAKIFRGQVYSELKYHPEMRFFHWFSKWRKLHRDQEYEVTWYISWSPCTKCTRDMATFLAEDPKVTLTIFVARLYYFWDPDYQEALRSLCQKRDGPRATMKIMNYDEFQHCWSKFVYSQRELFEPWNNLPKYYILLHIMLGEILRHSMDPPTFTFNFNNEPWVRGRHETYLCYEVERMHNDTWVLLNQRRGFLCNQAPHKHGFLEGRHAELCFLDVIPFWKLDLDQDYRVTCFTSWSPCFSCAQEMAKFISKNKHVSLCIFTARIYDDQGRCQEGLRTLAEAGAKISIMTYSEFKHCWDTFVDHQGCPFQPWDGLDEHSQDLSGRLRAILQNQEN
Chain of DNA dC->dU-editing enzyme APOBEC-3A (P31941 whole entry): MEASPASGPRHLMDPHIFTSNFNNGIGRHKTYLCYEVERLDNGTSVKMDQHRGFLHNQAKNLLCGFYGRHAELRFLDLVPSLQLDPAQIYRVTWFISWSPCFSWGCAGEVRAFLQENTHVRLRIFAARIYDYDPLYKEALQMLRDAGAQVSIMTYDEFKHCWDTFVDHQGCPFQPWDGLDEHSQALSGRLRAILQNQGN
Chain of Beta-galactosidase (Q8VNN2 whole entry): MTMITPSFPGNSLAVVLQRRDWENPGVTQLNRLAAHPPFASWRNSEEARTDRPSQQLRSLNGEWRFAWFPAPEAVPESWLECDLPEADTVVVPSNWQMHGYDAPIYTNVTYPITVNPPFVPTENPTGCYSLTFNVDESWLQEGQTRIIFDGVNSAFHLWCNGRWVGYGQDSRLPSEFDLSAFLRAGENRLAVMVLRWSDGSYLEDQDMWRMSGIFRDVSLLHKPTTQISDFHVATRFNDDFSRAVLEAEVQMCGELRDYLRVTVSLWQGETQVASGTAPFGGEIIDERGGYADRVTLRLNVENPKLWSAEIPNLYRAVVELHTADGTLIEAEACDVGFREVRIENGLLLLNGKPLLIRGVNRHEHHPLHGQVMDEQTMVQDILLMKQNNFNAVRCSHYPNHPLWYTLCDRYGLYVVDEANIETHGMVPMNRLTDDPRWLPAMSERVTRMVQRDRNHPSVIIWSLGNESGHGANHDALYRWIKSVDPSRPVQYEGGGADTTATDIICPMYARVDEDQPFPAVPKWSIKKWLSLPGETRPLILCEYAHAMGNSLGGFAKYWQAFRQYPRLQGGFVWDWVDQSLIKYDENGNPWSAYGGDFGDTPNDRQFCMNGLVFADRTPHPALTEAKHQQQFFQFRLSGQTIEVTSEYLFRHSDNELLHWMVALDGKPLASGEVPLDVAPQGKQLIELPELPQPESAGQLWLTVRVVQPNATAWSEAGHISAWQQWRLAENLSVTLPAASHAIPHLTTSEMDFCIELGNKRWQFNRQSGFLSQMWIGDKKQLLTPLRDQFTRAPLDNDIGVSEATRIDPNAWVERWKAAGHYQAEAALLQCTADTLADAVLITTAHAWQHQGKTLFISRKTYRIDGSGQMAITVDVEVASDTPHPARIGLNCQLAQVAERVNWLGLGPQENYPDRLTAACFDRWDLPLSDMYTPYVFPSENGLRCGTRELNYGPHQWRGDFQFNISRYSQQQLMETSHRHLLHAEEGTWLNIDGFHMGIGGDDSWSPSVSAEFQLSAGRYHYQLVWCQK

## O=C(NCc1ccc2c(c1)OCO2)Nc1ccc2nc(-c3ccco3)c(-c3ccco3)nc2c1
[1]
  IC50: 2.15 µM (active)

## CCCCN(CCCC)C(=S)N/N=C/c1c(C)nn(-c2ccccc2)c1O
Beta-galactosidase
  EC50: > 40 µM (inactive)
[2]
  EC50: 4.19 µM (active)
[3]
  IC50: 13.3 µM (active)
Streptococcus
  EC50: 11.4 µM (active)
[4]
  CC50: 5.22 µM (active)
[5]
  EC50: 13.3 µM (active)
[6]
  EC50: 0.221 µM (active)
Hexokinase-1
  EC50: > 80 µM (inactive)
[7]
  EC50: > 120 µM (not active)
Hexokinase HKDC1
  EC50: 28.7 µM (inactive)

## Cc1ccc(C(=O)O)cc1NC(=O)c1ccc2c(c1)C(=O)N(c1ccc([N+](=O)[O-])cc1)C2=O
[8]
  IC50: 10.9 µM (active)
[9]
  IC50: 15 µM (active)
[10]
  IC50: 21.6 µM (active)

## CCn1c(C)[n+](CC)c2cc(S(=O)(=O)NC)ccc21
[11]
  IC50: 6.81 µM (active)
[12]
  IC50: 17.5 µM (active)

## CCc1ccc(C2=NN=C(Nc3cccc(S(=O)(=O)N(C)C)c3)SC2)cc1
[13]
  EC50: > 195 µM (not active)
Hexokinase-1
  EC50: 8.26 µM (active)
Hexokinase HKDC1
  EC50: 10.3 µM (active)
INS1
  AC50: 7.54 µM (active)

## CCC(CO)(C(=O)OC1C[N+]2(C)CCC1CC2)c1ccccc1 (configuration not stated)
[11]
  IC50: 2.25 µM (active)
[12]
  IC50: 2.09 µM (active)
